≈ marks a conversion by molar mass, not a printed value.
How the values were obtained:
Type in all cases: functional
[1] = system: Mycobacterium tuberculosis variant bovis; test: Antibacterial activity against Mycobacterium bovis BCG-Connaught
[2] = system: Mycobacterium tuberculosis variant bovis; test: Antibacterial activity against Mycobacterium bovis BCG-Pasteur
[3] = system: Mycobacterium tuberculosis variant bovis; test: Antibacterial activity against Mycobacterium bovis BCG-Denmark
[4] = system: Mycobacterium tuberculosis variant bovis; test: Antibacterial activity against Mycobacterium bovis BCG-Moreau
[5] = system: Mycobacterium tuberculosis variant bovis; test: Antibacterial activity against Mycobacterium bovis BCG-Glaxo
[6] = system: Mycobacterium tuberculosis variant bovis; test: Antibacterial activity against Mycobacterium bovis BCG-japan
[7] = system: Mycobacterium tuberculosis variant bovis; test: Antibacterial activity against Mycobacterium bovis BCG-Russia
[8] = system: Mycobacterium tuberculosis variant bovis; test: Antibacterial activity against Mycobacterium bovis BCG-Connaught by Wayne's indirect method

In the case of NCC[C@H](O)C(=O)N[C@@H]1C[C@H](N)[C@@H](O[C@H]2O[C@H](CN)[C@@H](O)[C@H](O)[C@H]2O)[C@H](O)[C@H]1O[C@H]1O[C@H](CO)[C@@H](O)[C@H](N)[C@H]1O [AMIKACIN], the MIC [1] is reported as 0.125 µg/mL (≈ 0.213 µM).

CC[C@H]1OC(=O)[C@H](C)[C@@H](O[C@H]2C[C@@](C)(OC)[C@@H](O)[C@H](C)O2)[C@H](C)[C@@H](O[C@@H]2O[C@H](C)C[C@H](N(C)C)[C@H]2O)[C@](C)(O)C[C@@H](C)CN(C)[C@H](C)[C@@H](O)[C@]1(C)O [AZITHROMYCIN] gave an MIC [1] of 16 µg/mL (≈ 21.4 µM) and an MIC [2] of 1 µg/mL (≈ 1.34 µM).

O=C(O)c1cn(C2CC2)c2cc(N3CCNCC3)c(F)cc2c1=O [CIPROFLOXACIN] was tested, and the MIC [1] was 0.125 µg/mL (≈ 0.377 µM).

Compound CC[C@H]1OC(=O)[C@H](C)[C@@H](O[C@H]2C[C@@](C)(OC)[C@@H](O)[C@H](C)O2)[C@H](C)[C@@H](O[C@@H]2O[C@H](C)C[C@H](N(C)C)[C@H]2O)[C@](C)(OC)C[C@@H](C)C(=O)[C@H](C)[C@@H](O)[C@]1(C)O [CLARITHROMYCIN] has an MIC [1] of 0.25 µg/mL (≈ 0.334 µM), an MIC [3] of 0.07 µg/mL (≈ 0.0936 µM) and an MIC [4] of 2 µg/mL (≈ 2.67 µM). It also gave an MIC [2] of 0.3 µg/mL (≈ 0.401 µM) and an MIC [5] of 0.15 µg/mL (≈ 0.201 µM).

For CC[C@H]1OC(=O)[C@H](C)[C@@H](O[C@H]2C[C@@](C)(OC)[C@@H](O)[C@H](C)O2)[C@H](C)[C@@H](O[C@@H]2O[C@H](C)C[C@H](N(C)C)[C@H]2O)[C@](C)(O)C[C@@H](C)C(=O)[C@H](C)[C@@H](O)[C@]1(C)O [ERYTHROMYCIN], the MIC [1] was 16 µg/mL (≈ 21.8 µM), the MIC [4] was 128 µg/mL (≈ 174 µM) and the MIC [2] was 4 µg/mL (≈ 5.45 µM).

CC[C@@H](CO)NCCN[C@@H](CC)CO [ETHAMBUTOL] showed an MIC [1] of 2 µg/mL (≈ 9.79 µM), an MIC [3] of 2.5 µg/mL (≈ 12.2 µM) and an MIC [6] of 2 µg/mL (≈ 9.79 µM). It also gave an MIC [5] of 2.5 µg/mL (≈ 12.2 µM).

Compound CCc1cc(C(N)=S)ccn1 [ETHIONAMIDE] has an MIC [1] of 4 µg/mL (≈ 24.1 µM).

Compound NNC(=O)c1ccncc1 [ISONIAZID] has an MIC [1] of 0.125 µg/mL (≈ 0.911 µM), an MIC [3] of 0.4 µg/mL (≈ 2.92 µM) and an MIC [6] of 0.06 µg/mL (≈ 0.438 µM). It also gave an MIC [2] of 0.1 µg/mL (≈ 0.729 µM).

NC[C@H]1O[C@H](O[C@H]2[C@H](O)[C@@H](O[C@H]3O[C@H](CO)[C@@H](O)[C@H](N)[C@H]3O)[C@H](N)C[C@@H]2N)[C@H](O)[C@@H](O)[C@@H]1O [KANAMYCIN] showed an MIC [1] of 1 µg/mL (≈ 2.06 µM).

In the case of CC1COc2c(N3CCN(C)CC3)c(F)cc3c(=O)c(C(=O)O)cn1c23 (stereo unspecified) [OFLOXACIN], the MIC [7] is reported as 1 µg/mL (≈ 2.77 µM), the MIC [1] is reported as under 0.031 µg/mL and the MIC [3] is reported as 0.75 µg/mL (≈ 2.08 µM). The MIC [2] was 0.75 µg/mL (≈ 2.08 µM).

NC(=O)c1cnccn1 [PYRAZINAMIDE] gave an MIC [8] of over 800 µg/mL.

Compound CO[C@H]1/C=C/O[C@@]2(C)Oc3c(C)c(O)c4c(c3C2=O)C2=NC3(CCN(CC(C)C)CC3)NC2=C(NC(=O)/C(C)=C\C=C\[C@H](C)[C@H](O)[C@@H](C)[C@@H](O)[C@@H](C)[C@H](OC(C)=O)[C@@H]1C)C4=O [RIFABUTIN] has an MIC [1] of 0.063 µg/mL (≈ 0.0744 µM), an MIC [3] of 0.016 µg/mL (≈ 0.0189 µM) and an MIC [6] of 0.063 µg/mL (≈ 0.0744 µM). The MIC [2] was 0.063 µg/mL (≈ 0.0744 µM) and the MIC [5] was 0.016 µg/mL (≈ 0.0189 µM).

CO[C@H]1/C=C/O[C@@]2(C)Oc3c(C)c(O)c4c(O)c(c(/C=N/N5CCN(C)CC5)c(O)c4c3C2=O)NC(=O)/C(C)=C\C=C\[C@H](C)[C@H](O)[C@@H](C)[C@@H](O)[C@@H](C)[C@H](OC(C)=O)[C@@H]1C [RIFAMPIN] gave an MIC [1] of under 0.031 µg/mL, an MIC [3] of 0.016 µg/mL (≈ 0.0194 µM) and an MIC [6] of 0.063 µg/mL (≈ 0.0766 µM). For the same compound, the MIC [2] was 0.063 µg/mL (≈ 0.0766 µM) and the MIC [5] was 0.031 µg/mL (≈ 0.0377 µM).

Work on CN[C@@H]1[C@H](O[C@H]2[C@H](O[C@H]3[C@H](O)[C@@H](O)[C@H](N=C(N)N)[C@@H](O)[C@@H]3N=C(N)N)O[C@@H](C)[C@]2(O)C=O)O[C@@H](CO)[C@H](O)[C@H]1O [STREPTOMYCIN] yielded an MIC [1] of 0.25 µg/mL (≈ 0.43 µM), an MIC [3] of 2 µg/mL (≈ 3.44 µM) and an MIC [6] of 0.25 µg/mL (≈ 0.43 µM). It also gave an MIC [5] of 2 µg/mL (≈ 3.44 µM).

— ChEMBL document CHEMBL1275575, “Susceptibility of Mycobacterium bovis BCG vaccine strains to antituberculous antibiotics” (Antimicrob Agents Chemother, 2009)
